Results: patent publication US8741905B2, “Compounds and methods for treating autoimmune diseases” (The Broad Institute, Inc., priority 2010, dated 2014)

Experiments:
INS-1E cells [1] = assay: Cellular ATP levels (CellTiter-Glo) in cytokine-treated INS-1E cells; suppression of cytokine-induced beta-cell apoptosis; format: cell-based, rat; conditions: Rattus norvegicus
Description: The compounds were analyzed for activity utilizing methods described in Chou et al. (ACS Chem. Biol. 2010 Aug. 20; 5(8):729-34).
INS-1E cells were seeded at 10,000 cells per well using a Multidrop Combi (Thermo Labsystems) in white optical 384-well plates (Corning Life Sciences). After overnight incubation, medium was removed and 50 μL of RPMI containing 1% FBS and a combination of cytokines (10 ng mL-^1 IL-1β, 50 ng mL^−1 IFN-γ, 25 ngmL^−1 TNF-α) was added to every well. Using libraries of compounds dissolved in DMSO and a CyBi-Well pin-transfer robot (CyBio Corp.), 0.1 μL of each compound was added. After 48 h, medium was removed and 20 μL of CellTiter-Glo reagent was added. Luminescence was measured after 10 min of incubation using an EnVision plate reader (PerkinElmer).
Instrument output files were processed using Pipeline Pilot (Accelrys) and input to MATLAB (The MathWorks) for data normalization. Compound performance scores relative to a distribution of mock-treated (DMSO) wells were calculated using a revised version of the scoring system underlying ChemBank. (Seiler et al., Nucleic Acids Res. 36, D351-359, 2008). The role of replicate treatments was further developed as follows: first, mock-treatment distributions were modeled using all mock-treated wells measured on a single day, regardless of their nominal replicate; second, per-compound scores weighted each in-plate background-subtracted measurement by the uncertainty in that measurement, using the method of maximum likelihood. The uncertainty in a single background-subtracted measurement was estimated using the number of mock-treated wells on the plate and, as a measure of the assay noise, the standard deviation of the per-day mock-treatment distribution. The signal, a weighted average of differences, was scaled by the noise, the standard deviation of the mock treatment distribution.
INS-1E cells were seeded at 10,000 cells/well using a Multidrop Combi (Thermo Labsystems) in white optical 384-well plates (Corning Life Sciences). After overnight incubation, medium was removed and 50 μL RPMI containing the treated compound, 1% FBS and a combination of cytokines (10 ng/mL IL-1β, 50 ng/mL IFN-γ, 25 ng/mL TNF-α) was added to every well. After incubation for 48 hr, medium was removed and 20 μL CellTiter-Glo reagent was added. Luminescence was measured after 10-min incubation using an EnVision plate reader (PerkinElmer).

INS-1E cells [2] = assay: Caspase-3 activity assay (Caspase-Glo 3/7) in cytokine-treated INS-1E cells; format: cell-based, rat; conditions: cytokines
Description: INS-1E cells were seeded at 5,000 cells per well in white optical 384-well plates and treated as described for highthroughput screening. After treatment with cytokines and compounds for 48 h, medium was removed and 20 μL Caspase-Glo 3/7 reagent was added. Luminescence was measured after 2 h of incubation using an EnVision plate reader.

INS-1E cells [3] = assay: Glucose-stimulated insulin secretion in cytokine-treated INS-1E cells; format: cell-based, rat; conditions: cytokines
Description: INS-1E cells were seeded in 96-well plates at 20,000 cells per well and incubated for 48 h in 100 μL of fresh RPMI containing 1% FBS and the cytokine cocktail, in the presence or absence of compounds. Cells were washed and incubated for 2 h in KRBH (135 mM NaCl, 3.6 mM KCl, 5 mM NaHCO3, 0.5 mM NaH2PO4, 0.5 mM MgCl2, 1.5 mM CaCl2, 10 mM HEPES, pH 7.4, 0.1% BSA) without glucose. Cells were subsequently incubated with KRBH containing 2 or 15 mM glucose for 1 h. The supernatant was taken for measurement of released insulin, and 100 μL of acidified ethanol was added to each well for extraction and measurement of cellular insulin content. Insulin was measured with a rat insulin ELISA kit (Alpco).

dissociated human islets = assay: Cytokine-induced caspase-3/7 activity in dissociated human islets; format: cell-based; conditions: six-day cytokine treatment, co-incubation
From the text: Without being bound by any theory the following postulated to relate the activity of the compounds of Formula I in autoimmune diseases. Human beta-cell apoptosis involves a complex set of signaling cascades initiated by IL-1β, IFN-γ, and TNF-α. IL-1β and TNF-α induce NF-κB expression, while downstream activation of gene expression is thought to occur through nitric oxide (NO) signaling, which both increases the endoplasmic reticulum stress-response pathway and decreases beta-cell function; this pathway works together with IFN-γ-induced STAT-1 signaling to effect beta-cell death. These effects of cytokines are beta cell-specific, and small-molecule suppressors should have little to no effect on other cell types in the pancreas. Small molecules that increase beta-cell survival in the presence of cytokines could be of potential clinical benefit to early-stage type 1 diabetic patients. A number of studies have described small molecules with protective effects in the presence of cytokines; most of these were discovered because of their nonspecific antioxidant or anti-inflammatory effects. […] Because of the use of dissociated islets and a whole-well readout of caspase activity, it cannot be certain that only beta cells are undergoing apoptosis; however, based on previous results in the literature, beta cells may constitute the majority of the apoptotic effect.

STAT1 [4] = assay: GAS reporter assay (cytokine-induced STAT1 reporter gene activity); format: cell-based; conditions: FIG. 7
Description: INS-1E cells were transfected with plasmids (GAS reporter assay kit) using DharmaFECT reagent according to the manufacturer's protocol (SABiosciences) in white optical 384-well plates (Corning Life Sciences). After overnight incubation, medium was removed and 50 μL RPMI containing the treated compound, 1% FBS and a combination of cytokines (10 ng/mL IL-1β, 50 ng/mL IFN-γ, 25 ng/mL TNF-α) was added to every well. After treatment with cytokines and compounds for 18 hr, luminescence was measure using Dual-Glo according to the manufacturer's protocol (Promega).

STAT1 [5] = assay: Nuclear STAT1 translocation; format: cell-based; conditions: FIG. 9
Usp9x = assay: Low-throughput compound pull-down and Western blot; format: binding; conditions: FIG. 13, Western blot

SMILES: C[C@@H]1CN([C@@H](C)CO)C(=O)c2cccc(NC(=O)Nc3cccc4ccccc34)c2O[C@H]1CN(C)S(=O)(=O)c1ccc2c(c1)OCCO2 [Compound 21A, N-(((2R,3R)-5-((S)-1-Hydroxypropan-2-yl)-3-methyl-10-(3-(naphthalen-1-yl)ureido)-6-oxo-3,4,5,6-tetrahydro-2H-benzo[b][1,5]oxazocin-2-yl)methyl)-N-methyl-2,3-dihydrobenzo-[b][1,4]dioxine-6-sulfonamide]
- EC50 (INS-1E cells [1]; INS-1E, assay not named, read-out: EC50): 770 nM
- IC50 (INS-1E cells [1]; INS-1E, read-out: IC50, inhibition of cytokine-induced beta cell apoptosis): 770 nM
- EC50 (INS-1E cells [1]; INS-1E cells, cytokines IL-1β, IFN-γ, TNF-α, 48 h, CellTiter-Glo, read-out: CTG EC50 in HTS): > 100 nM
- EC50 (INS-1E cells [2]; Rattus norvegicus, 48 h, Caspase-Glo 3/7): > 10000 nM
- caspase-3/7 activity in INS-1E cells (INS-1E cells [2]): decreased caspase-3/7 activity
- glucose-stimulated insulin secretion (GSIS) (INS-1E cells [3]): restored glucose-stimulated insulin secretion (GSIS), showing improved beta-cell function, to nearly normal levels
- cytokine-induced caspase-3/7 activity (induced by approximately 60%) (dissociated human islets): abolished
- cytokine-induced STAT1 reporter gene activity (STAT1 [4]): inhibits cytokine-induced STAT1 reporter gene activity
- nuclear STAT1 translocation (STAT1 [5]): Inhibition of nuclear STAT1 translocation
- protein isolated by compound pull-down (Usp9x): Usp9x isolated
